Measurements taken from patent EP0233461B2, “4,5,6-Substituted-2-pyrimidinamines” (AMERICAN CYANAMID COMPANY, priority 1986, dated 1987).
Where a name gives a salt, the structure may show the parent alone. Read-outs that look alike come from different tables or passages of the source.

Test system: human basophils
Experiment: Inhibition of histamine release from immunologically stimulated human basophils
Assay type: cell-based
Details: concentration causing 50% inhibition of histamine release, by linear regression, active if IC50 ≦ 48 µM, read-out: IC50
Procedure, shortened: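 Leukocytes from sedimented human blood, washed in Tris-A and resuspended in Tris-ACM, were challenged with anti-IgE or antigen, with or without compound, for 60 min at 37 °C. Released histamine was measured fluorometrically after OPT derivatization and expressed as percent of total (perchloric acid lysate), corrected for spontaneous release.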

IC50 (Homo sapiens) [µM] | IC50 [µM] | SMILES
0.7 |  | CC(C)(C)c1ccc(Nc2nccc(-c3cccnc3)n2)cc1 [N-[4-(1,1-Dimethylethyl)phenyl]-4-(3-pyridinyl)-2-pyrimidinamine]
1.1 |  | CC(C)c1ccc(Nc2nccc(-c3cccnc3)n2)cc1 [N-[4-(1-Methylethyl)phenyl]-4-(3-pyridinyl)-2-pyrimidinamine]
1.3 |  | c1cncc(-c2ccnc(Nc3ccc(-n4ccnc4)cc3)n2)c1 [N-[4-(1H-Imidazol-1-yl)phenyl]-4-(3-pyridinyl)-2-pyrimidinamine]
0.8 |  | C=CCOc1ccc(Nc2nccc(-c3cccnc3)n2)cc1 [N-[4-(2-Propenyloxy)phenyl]-4-(3-pyridinyl)-2-pyrimidinamine]
1 |  | Nc1ccc(Nc2nccc(-c3ccccn3)n2)cc1 [N-[4-(2-Pyridinyl)-2-pyrimidinyl]-1,4-benzenediamine, dihydrochloride]
0.4 |  | Nc1cccc(Nc2nccc(-c3cccnc3)n2)c1 [N-[4-(3-Pyridinyl)-2-pyrimidinyl]-1,3-benzenediamine, dihydrochloride]
1.5 |  | CN1CCN(c2ccc(Nc3nccc(-c4cccnc4)n3)cc2)CC1 [N-[4-(4-Methyl-1-piperazinyl)phenyl]-4-(3-pyridinyl)-2-pyrimidinamine]
 | 2.4 | Nc1ccc(Nc2nccc(-c3ccncc3)n2)cc1 [N-[4-(4-Pyridinyl)-2-pyrimidinyl)-1,4-benzenediamine]
3 |  | Nc1ccc(Nc2nccc(-c3ccncc3)n2)cc1 [N-[4-(4-Pyridinyl)-2-pyrimidinyl]-1,4-benzenediamine, hydrochloride]
 | 3.8 | CN(C)c1ccc(Nc2nccc(-c3ccncc3)n2)cc1 [N-[4-(Dimethylamino)phenyl]-4-(4-pyridinyl)-2-pyrimidinamine]
0.8 |  | CC(N)c1ccc(Nc2nccc(-c3cccnc3)n2)cc1 (stereo not shown) [N-[4-[1-Aminoethyl)phenyl]-4-(3-pyridinyl)-2-pyrimidinamine, trihydrochloride]

Continued, molecule first:

SMILES | IC50 (Homo sapiens) [µM] | IC50 [µM]
FC(F)(F)c1cc(Nc2nccc(-c3ccccn3)n2)ccc1-n1ccnc1 [N-[4-(1H-Imidazol-1-yl)-3-(tri-fluoromethyl)phenyl]-4-(2-pyridin-yl)-2-pyrimidinamine] | 1.6 | 
FC(F)(F)c1cc(Nc2nccc(-c3ccncc3)n2)ccc1-n1ccnc1 [N-[4-(1H-Imidazol-1-yl)-3-(trifluoromethyl)-phenyl]-4-(4-pyridinyl)-2-pyrimidinamine] | 0.4 | 
c1ccc(-c2ccnc(Nc3ccc(-n4ccnc4)cc3)n2)nc1 [N-[4-(1H-Imidazol-1-yl)phenyl]-4-(2-pyridinyl)-2-pyrimidinamine] | 1.8 | 
c1cc(-c2ccnc(Nc3ccc(-n4ccnc4)cc3)n2)ccn1 [N-[4-(1H-Imidazol-1-yl)phenyl]-4-(4-pyridinyl)-2-pyrimidinamine] | 12.3 | 
Nc1cccc(Nc2nccc(-c3ccccn3)n2)c1 [N-[4-(2-Pyridinyl)-2-pyrimidinyl]-1,3-benzenediamine] | 0.2 | 
CN1CCN(c2ccc(Nc3nccc(-c4ccccn4)n3)cc2)CC1 [N-[4-(4-Methyl-1-piperazinyl)phenyl]-4-(2-pyridinyl)-2-pyrimidinamine] | < 24 | 
CN1CCN(c2ccc(Nc3nccc(-c4cccs4)n3)cc2)CC1 [N-[4-(4-Methyl-1-piperazinyl)phenyl]-4-(2-thienyl)-2-pyrimidinamine] | < 24 | 
CN1CCN(c2ccc(Nc3nccc(-c4ccncc4)n3)cc2)CC1 [N-[4-(4-Methyl-1-piperazinyl)phenyl]-4-(4-pyridinyl)-2-pyrimidinamine] | 0.6 | 
Nc1cccc(Nc2nccc(-c3ccncc3)n2)c1 [N-[4-(4-Pyridinyl)-2-pyrimidinyl]-1,3-benzenediamine] | 1 | 
CN(C)c1ccc(Nc2nccc(-c3ccccn3)n2)cc1 [N-[4-(Dimethylamino)phenyl]-4-(2-pyridinyl)-2-pyrimidinamine] |  | 2.7
CCN(CC)CCOc1ccc(Nc2nccc(-c3ccncc3)n2)cc1 [N-[4-[2-(Diethylamino)ethoxy]phenyl]-4-(4-pyridinyl)-2-pyrimidinamine] | 0.2 | 
